Measured values reported in ChEMBL document CHEMBL3885861, “Open TG-GATES”.

Organism: Rattus norvegicus
Test: Open TG-GATES - Regimen: Single
Type: toxicity, organism-based, Sprague-Dawley
Parameters: regimen Single, gender Male, age 6 weeks
Conditions: in vivo, po, 0 mg/kg, route gavage, dose level Control; for APTT / Bas / Eos / Fbg / Hb / Ht / Lym / MCH / MCHC / MCV / Mono / Neu / PT / Plat / RBC / Ret / WBC: tissue Blood; for KIDNEY_L / KIDNEY_R / KIDNEY_TOTAL: tissue Kidney; for LIVER: tissue Liver; for A/G / ALP / ALT / AST / BUN / CRE / Ca / Cl / DBIL / GLC / IP / K / LDH / Na / PL / RALB / TBIL / TC / TG / TP / gamma-GTP: tissue Plasma

## Nc1nc(N)c2nc(-c3ccccc3)c(N)nc2n1
3 h
  TERMINAL_BW: 212 g
  APTT: 16.9 s
  Bas: 0%
  Eos: 1%
  Fbg: 287.4 mg/dL
  Hb: 13.9 g/dL
  Ht: 42%
  Lym: 79.2%
  MCH: 21.4 pg
  MCHC: 33%
  MCV: 64.6 fL
  Mono: 3.2%
  Neu: 16%
  PT: 14.2 s
  Plat: 114.1 x10_4/uL
  RBC: 651 x10_4/ul
  Ret: 7.4%
  WBC: 92.6 x10_2/uL
  KIDNEY_L: 1 g
  KIDNEY_R: 1 g
  KIDNEY_TOTAL: 1.9 g
  LIVER: 9.3 g
  A/G: 1
  ALP: 1479.4 IU/L
  ALT: 44.2 IU/L
  AST: 76.6 IU/L
  BUN: 9.4 mg/dL
  CRE: 0.2 mg/dL
  Ca: 11 mg/dL
  Cl: 105.2 meq/L
  DBIL: 0.008 mg/dL
  GLC: 173.4 mg/dL
  IP: 9.2 mg/dL
  K: 3.9 meq/L
  LDH: 58.4 IU/L
  Na: 143.2 meq/L
  PL: 143.4 mg/dL
  RALB: 2.6 g/dL
  TBIL: 0.06 mg/dL
  TC: 79.6 mg/dL
  TG: 50.8 mg/dL
  TP: 5.3 g/dL
  gamma-GTP: 1 IU/L
6 h
  TERMINAL_BW: 211.8 g
  APTT: 16.8 s
  Bas: 0%
  Eos: 0.4%
  Fbg: 302.8 mg/dL
  Hb: 13.9 g/dL
  Ht: 42.3%
  Lym: 77.2%
  MCH: 21.3 pg
  MCHC: 32.9%
  MCV: 64.8 fL
  Mono: 2.6%
  Neu: 19%
  PT: 14 s
  Plat: 123.2 x10_4/uL
  RBC: 653.2 x10_4/ul
  Ret: 7.4%
  WBC: 93.6 x10_2/uL
  KIDNEY_L: 1 g
  KIDNEY_R: 1 g
  KIDNEY_TOTAL: 1.9 g
  LIVER: 9.6 g
  A/G: 0.9
  ALP: 1424.2 IU/L
  ALT: 34.6 IU/L
  AST: 69.2 IU/L
  BUN: 9.6 mg/dL
  CRE: 0.2 mg/dL
  Ca: 10.8 mg/dL
  Cl: 104.6 meq/L
  DBIL: 0.012 mg/dL
  GLC: 179.2 mg/dL
  IP: 9.7 mg/dL
  K: 4.2 meq/L
  LDH: 57.2 IU/L
  Na: 142.8 meq/L
  PL: 146.8 mg/dL
  RALB: 2.6 g/dL
  TBIL: 0.066 mg/dL
  TC: 77.8 mg/dL
  TG: 84 mg/dL
  TP: 5.3 g/dL
  gamma-GTP: 1.2 IU/L
9 h
  TERMINAL_BW: 210.8 g
  APTT: 16.3 s
  Bas: 0.2%
  Eos: 1%
  Fbg: 304.2 mg/dL
  Hb: 13.6 g/dL
  Ht: 41.1%
  Lym: 73%
  MCH: 20.5 pg
  MCHC: 33%
  MCV: 62.2 fL
  Mono: 2%
  Neu: 23.2%
  PT: 14 s
  Plat: 119.1 x10_4/uL
  RBC: 661.2 x10_4/ul
  Ret: 7.1%
  WBC: 83.6 x10_2/uL
  KIDNEY_L: 1 g
  KIDNEY_R: 1 g
  KIDNEY_TOTAL: 1.9 g
  LIVER: 8.5 g
  A/G: 1
  ALP: 1497.4 IU/L
  ALT: 36.6 IU/L
  AST: 68 IU/L
  BUN: 10 mg/dL
  CRE: 0.2 mg/dL
  Ca: 10.6 mg/dL
  Cl: 106 meq/L
  DBIL: 0.008 mg/dL
  GLC: 173.8 mg/dL
  IP: 9.4 mg/dL
  K: 3.9 meq/L
  LDH: 53.2 IU/L
  Na: 143.6 meq/L
  PL: 132.6 mg/dL
  RALB: 2.5 g/dL
  TBIL: 0.058 mg/dL
  TC: 74 mg/dL
  TG: 41.4 mg/dL
  TP: 5.2 g/dL
  gamma-GTP: 1.4 IU/L
24 h
  TERMINAL_BW: 228.1 g
  APTT: 17.1 s
  Bas: 0%
  Eos: 1%
  Fbg: 291 mg/dL
  Hb: 14 g/dL
  Ht: 41.9%
  Lym: 76%
  MCH: 21.5 pg
  MCHC: 33.4%
  MCV: 64.3 fL
  Mono: 2.2%
  Neu: 19.8%
  PT: 13.7 s
  Plat: 120.8 x10_4/uL
  RBC: 652 x10_4/ul
  Ret: 6.9%
  WBC: 78.2 x10_2/uL
  KIDNEY_L: 1 g
  KIDNEY_R: 1 g
  KIDNEY_TOTAL: 2 g
  LIVER: 10.9 g
  A/G: 0.9
  ALP: 1674.6 IU/L
  ALT: 47.4 IU/L
  AST: 72.2 IU/L
  BUN: 15 mg/dL
  CRE: 0.2 mg/dL
  Ca: 11.2 mg/dL
  Cl: 104.2 meq/L
  DBIL: 0.01 mg/dL
  GLC: 188.6 mg/dL
  IP: 8.2 mg/dL
  K: 4.2 meq/L
  LDH: 72.4 IU/L
  Na: 142.6 meq/L
  PL: 158.6 mg/dL
  RALB: 2.7 g/dL
  TBIL: 0.044 mg/dL
  TC: 80.2 mg/dL
  TG: 109.8 mg/dL
  TP: 5.5 g/dL
  gamma-GTP: 1 IU/L
